Patent US9113629B2, “4-amino-6-(4-substituted-phenyl)-picolinates and 6-amino-2-(4-substituted-phenyl)-pyrimidine-4-carboxylates and their use as herbicides” (DOW AGROSCIENCES LLC, priority 2013, dated 2015)

Experiments:
[1] = test system: KCHSC: kochia (Kochia scoparia); assay: Post-emergent Test III, herbicidal activity in wheat and barley; format: in vivo; conditions: for pest or weed control at 35 g/ha / pest or weed control at 70 g/ha / pest or weed control at 140 g/ha: Bassia scoparia, post-emergence, 504 h, read-out: Visual Growth Reduction (%) 21 Days After Application KCHSC; for pest or weed control at 35 g/ha: 35 g ai/ha; for pest or weed control at 70 g/ha: 70 g ai/ha; for pest or weed control at 140 g/ha: 140 g ai/ha; for GR50 KCHSC / GR80 KCHSC: probit analysis, 21 days after application; for GR50 KCHSC: dose for growth reduction of 50 percent; for GR80 KCHSC: dose for growth reduction of 80 percent
Procedure: (§1) Post-emergent Test III. Seeds of the desired test plant species were planted in Sun Gro MetroMix® 306 planting mixture, which typically has a pH of 6.0 to 6.8 and an organic matter content of about 30 percent, in plastic pots with a surface area of 103.2 square centimeters (cm^2). When required to ensure good germination and healthy plants, a fungicide treatment and/or other chemical or physical treatment was applied. The plants were grown for 7-36 days (d) in a greenhouse with an approximate 14 hour (h) photoperiod which was maintained at about 18° C. during the day and 17° C. during the night. Nutrients and water were added on a regular basis and supplemental lighting was provided with overhead metal halide 1000-Watt lamps as necessary. The plants were employed for testing when they reached the second or third true leaf stage.
(§2) A weighed amount, determined by the highest rate to be tested, of each test compound was placed in a 25 mL glass vial and was dissolved in 4 mL of a 97:3 v/v mixture of acetone and DMSO to obtain concentrated stock solutions. […] The concentrated stock solutions obtained were diluted with 20 mL of an aqueous mixture containing acetone, water, isopropyl alcohol, DMSO, Agri-Dex crop oil concentrate, and X-77 surfactant in a 48:39:10:1.5:1.5:0.02 v/v ratio to obtain spray solutions containing the highest application rates. Additional application rates were obtained by serial dilution of 12 mL of the high rate solution into a solution containing 2 mL of 97:3 v/v mixture of acetone and DMSO and 10 mL of an aqueous mixture containing acetone, water, isopropyl alcohol, DMSO, Agri-Dex crop oil concentrate, and X-77 surfactant in a 48:39:10:1.5:1.5:0.02 v/v ratio to obtain ½×, ¼×, ⅛× and 1/16× rates of the high rate. Compound requirements are based upon a 12 mL application volume at a rate of 187 liters per hectare (L/ha). Formulated compounds were applied to the plant material with an overhead Mandel track sprayer equipped with 8002E nozzles calibrated to deliver 187 L/ha over an application area of 0.503 square meters at a spray height of 18 inches (43 cm) above the average plant canopy height. Control plants were sprayed in the same manner with the solvent blank.
(§3) The treated plants and control plants were placed in a greenhouse as described above and watered by subirrigation to prevent wash-off of the test compounds. After 21 d, the condition of the test plants as compared with that of the untreated plants was determined visually and scored on a scale of 0 to 100 percent where 0 corresponds to no injury and 100 corresponds to complete kill.
(§4) By applying the well-accepted probit analysis as described by J. Berkson in Journal of the American Statistical Society, 48, 565 (1953) and by D. Finney in “Probit Analysis” Cambridge University Press (1952), herbicidal injury of a specific compound at various rates can be used to calculate GR20, GR50, GR80 and GR90 values, which are defined as growth reduction factors that correspond to the effective dose of herbicide required to provide plant growth reduction (GR) of 20 percent, 50 percent, 80 percent and 90 percent, respectively. Probit analysis was applied to data collected from multiple dose rates of individual compounds utilizing the procedures explained in the following examples. The analysis of those dose rates is captured in the following tables.

[2] = as above; format: in vivo, Lolium multiflorum, Lolium rigidum; conditions: Lolium multiflorum, post-emergence, 504 h, read-out: Visual Growth Reduction (%) 21 Days After Application LOLSS; for pest or weed control at 35 g/ha: 35 g ai/ha; for pest or weed control at 70 g/ha: 70 g ai/ha; for pest or weed control at 140 g/ha: 140 g ai/ha
Procedure: as §1, §2, §3, §4

[3] = test system: MATSS: scented mayweed (Matricaria chamomilla), pineappleweed (Matricaria matricarioides); assay: as above; format: in vivo; conditions: for pest or weed control at 35 g/ha / pest or weed control at 70 g/ha / pest or weed control at 140 g/ha: Matricaria chamomilla, post-emergence, 504 h, read-out: Visual Growth Reduction (%) 21 Days After Application MATSS; for pest or weed control at 35 g/ha: 35 g ai/ha; for pest or weed control at 70 g/ha: 70 g ai/ha; for pest or weed control at 140 g/ha: 140 g ai/ha; for GR50 MATSS / GR80 MATSS: probit analysis, 21 days after application; for GR50 MATSS: dose for growth reduction of 50 percent; for GR80 MATSS: dose for growth reduction of 80 percent
Procedure: as §1, §2, §3, §4

[4] = test system: HORSS: barley, including spring and winter (Hordeum vulgare); assay: as above; format: in vivo
Procedure: as §1, §2, §3, §4

[5] = test system: SETVI: green foxtail (Setaria viridis); assay: as above; format: in vivo
Procedure: as §1, §2, §3, §4

[6] = test system: TRZSS: wheat, including spring and winter (Triticum aestivum); assay: as above; format: in vivo
Procedure: as §1, §2, §3, §4

[7] = test system: APESV: bentgrass (Apera spica-venti); assay: as above; format: in vivo; conditions: for pest or weed control at 35 g/ha / pest or weed control at 70 g/ha / pest or weed control at 140 g/ha: Apera spica-venti, post-emergence, 504 h, read-out: Visual Growth Reduction (%) 21 Days After Application APESV; for pest or weed control at 35 g/ha: 35 g ai/ha; for pest or weed control at 70 g/ha: 70 g ai/ha; for pest or weed control at 140 g/ha: 140 g ai/ha; for GR50 APESV / GR80 APESV: probit analysis, 21 days after application; for GR50 APESV: dose for growth reduction of 50 percent; for GR80 APESV: dose for growth reduction of 80 percent
Procedure: as §1, §2, §3, §4

[8] = test system: LOLSS: ryegrass including, Italian ryegrass (Lolium multiflorum), rigid ryegrass (Lolium rigidum), annual ryegrass (Lolium multiflorum subsp. Gaudini); assay: as above; format: in vivo; conditions: probit analysis, 21 days after application; for GR50 LOLSS: dose for growth reduction of 50 percent; for GR80 LOLSS: dose for growth reduction of 80 percent
Procedure: as §1, §2, §3, §4

[9] = probit analysis, dose for growth reduction of 20 percent, 21 days after application, crop

SMILES	pest or weed control at 35 g/ha [1] [%]	pest or weed control at 70 g/ha [1] [%]	pest or weed control at 140 g/ha [1] [%]	GR50 KCHSC [1] [g ai/ha]	GR80 KCHSC [1] [g ai/ha]	pest or weed control at 35 g/ha [2] [%]	pest or weed control at 70 g/ha [2] [%]	pest or weed control at 140 g/ha [2] [%]	pest or weed control at 35 g/ha [3] [%]	pest or weed control at 70 g/ha [3] [%]	pest or weed control at 140 g/ha [3] [%]	GR50 MATSS [3] [g ai/ha]	GR80 MATSS [3] [g ai/ha]	pest or weed control at 35 g/ha [7] [%]	pest or weed control at 70 g/ha [7] [%]	pest or weed control at 140 g/ha [7] [%]	GR50 APESV [7] [g ai/ha]	GR80 APESV [7] [g ai/ha]	GR50 LOLSS [8] [g ai/ha]	GR80 LOLSS [8] [g ai/ha]	also measured
COC(=O)c1nc(-c2ccc(OC(F)F)cc2)c(F)c(N)c1Cl [Compound 85]	0 to 29	0 to 29	0 to 29	>140	>140	0 to 29	0 to 29	0 to 29	0 to 29	0 to 29	0 to 29	88	>140	0 to 29	0 to 29	0 to 29	>140	>140	–	–	pest or weed control at 35 g/ha ([4]; Hordeum vulgare, post-emergence, 504 h, 35 g ai/ha, read-out: Visual Growth Reduction (%) 21 Days After Application HORSS): 0 to 29%; pest or weed control at 70 g/ha ([4]; Hordeum vulgare, post-emergence, 504 h, 70 g ai/ha, read-out: Visual Growth Reduction (%) 21 Days After Application HORSS): 30 to 44%; pest or weed control at 140 g/ha ([4]; Hordeum vulgare, post-emergence, 504 h, 140 g ai/ha, read-out: Visual Growth Reduction (%) 21 Days After Application HORSS): 60 to 74%; GR20 HORSS [4, 9]: 33 g ai/ha; pest or weed control at 35 g/ha ([5]; Setaria viridis, post-emergence, 504 h, 35 g ai/ha, read-out: Visual Growth Reduction (%) 21 Days After Application SETVI): 0 to 29%; pest or weed control at 70 g/ha ([5]; Setaria viridis, post-emergence, 504 h, 70 g ai/ha, read-out: Visual Growth Reduction (%) 21 Days After Application SETVI): 0 to 29%; pest or weed control at 140 g/ha ([5]; Setaria viridis, post-emergence, 504 h, 140 g ai/ha, read-out: Visual Growth Reduction (%) 21 Days After Application SETVI): 0 to 29%; GR50 SETVI ([5]; probit analysis, dose for growth reduction of 50 percent, 21 days after application): >140 g ai/ha; GR80 SETVI ([5]; probit analysis, dose for growth reduction of 80 percent, 21 days after application): >140 g ai/ha; pest or weed control at 35 g/ha ([6]; Triticum aestivum, post-emergence, 504 h, 35 g ai/ha, read-out: Visual Growth Reduction (%) 21 Days After Application TRZSS): 60 to 74%; pest or weed control at 70 g/ha ([6]; Triticum aestivum, post-emergence, 504 h, 70 g ai/ha, read-out: Visual Growth Reduction (%) 21 Days After Application TRZSS): 60 to 74%; pest or weed control at 140 g/ha ([6]; Triticum aestivum, post-emergence, 504 h, 140 g ai/ha, read-out: Visual Growth Reduction (%) 21 Days After Application TRZSS): 60 to 74%; GR20 TRZSS [6, 9]: 1 g ai/ha
COC(=O)c1nc(-c2ccc(Br)c(F)c2F)c(F)c(N)c1Cl [Compound 109, methyl 4-amino-6-(4-bromo-2,3-difluorophenyl)-3-chloro-5-fluoropicolinate]	85 to 94	85 to 94	–	3	19	45 to 59	45 to 59	–	30 to 44	45 to 59	–	72	>140	85 to 94	85 to 94	–	1	6	34	>140	–
Nc1c(F)c(-c2ccc(Br)c(F)c2F)nc(C(=O)O)c1Cl [Compound 147]	85 to 94	95 to 100	85 to 94	4	19	30 to 44	45 to 59	60 to 74	95 to 100	95 to 100	95 to 100	6	14	85 to 94	85 to 94	85 to 94	5	16	71	>140	–
COC(=O)c1nc(-c2ccc(C(F)F)cc2)c(F)c(N)c1Cl [Compound 209]	60 to 74	85 to 94	–	12	42	0 to 29	30 to 44	–	0 to 29	0 to 29	–	>140	>140	0 to 29	0 to 29	–	>140	>140	93	>140	–
C=Cc1c(C(=O)O)nc(-c2ccc(Cl)c(F)c2)c(F)c1N [Compound 214]	75 to 84	85 to 94	95 to 100	7	52	30 to 44	45 to 59	85 to 94	75 to 84	85 to 94	85 to 94	4	41	0 to 29	30 to 44	45 to 59	110	>140	59	>140	–
